# According to patent publication US20090215713A1, “Use of atp for the manufacture of a medicament for the prevention and treatment of oxidative stress and related conditions” (priority 2004, published 2009):
# Entries after “also recorded” stand apart in the source; their conditions may differ.
# Legend:
# [1] = ESR measurement of DMPO—OH spin adducts during Fenton chemistry; assay type: biochemical
# Experimental: The effect of ATP on the formation or scavenging of hydroxyl radicals, generated by Fenton reagents was measured as DMPO—OH spin adducts in ESR spectra. The ESR studies were performed at room temperature using a Bruker EMX 1273 spectrometer equipped with an ER 4119HS high sensitivity cavity and 12 kW power supply. The following instrument conditions were used: scan range, 60 G; center magnetic field, 3490 G; modulation amplitude, 1.0 G; microwave frequency, 9.86 GHz; time constant, 40.96 ms, scan time, 20.48 ms; number of scans, 50. OH radicals were generated by the Fenton reaction, and 5,5-dimethyl-1-pyrroline N-oxide (DMPO) was used for trapping hydroxyl radicals. Fifty microliters of 10 mM H2O2, 50 μl of 250 mM DMPO, 50 μl milliQ, 50 μl milliQ (control) or sample, and 50 μl 5 mM FeSO4/5 mM EDTA were mixed, and then transferred to a capillary glass tube. After 2 minutes, DMPO—OH spin adducts were measured by ESR. Quantification of the spectra was performed by peak integration using the WIN-EPR spectrum manipulation program.
# Electron spin resonance (ESR) studies were performed at room temperature using a Bruker EMX 1273 spectrometer equipped with an ER 4119HS high sensitivity cavity and 12 kW power supply. The following instrument conditions were used: scan range, 60 G; center magnetic field, 3490 G; modulation amplitude, 1.0 G; microwave frequency, 9.86 GHz; time constant, 40.96 ms, scan time, 20.48 ms; number of scans, 50. OH radicals were generated by the Fenton reaction, and 5,5-Dimethyl-1-pyrroline N-oxide (DMPO) was used for trapping hydroxyl radicals. Fifty microliters of 10 mM H2O2, 50 μl 250 mM DMPO, 50 μl milliQ, 50 μl milliQ (blanco) or sample and 50 μl 5 mM FeSO4/5 mM EDTA were mixed, transferred to a capillary glass tube and the DMPO—OH spin adducts were measured after 2 minutes by ESR. Quantification of the spectra (in arbitrary units) was performed by peak integration using the WIN-EPR spectrum manipulation program.
# IL-10 = test: LPS+PHA-induced IL-10 secretion in whole blood from healthy subjects (ELISA); assay type: cell-based, human; details: indicated ATP concentrations, 24 h
# Experimental: FIG. 8 Effect of ATP on LPS+PHA-induced IL-10 secretion in whole blood from healthy subjects. The whole blood was exposed to 10 μg/ml LPS and 1 μg/ml PHA with indicated concentrations of ATP for 24 h. The IL-10 released into the supernatants was analyzed using the ELISA method. Results are expressed in percentage, 100% being the IL-10 release under stimulation by LPS+PHA without ATP. […] Data are expressed as the mean values; error bars represent SEM. *, different from control (stimulation by LPS+PHA without ATP) (P<0.05).
# (§1) Blood was collected from 8 healthy subjects in heparin containing vacutainer tubes. All incubations were performed in duplicate. ATP was dissolved in RPMI 1640 culture medium, at a final concentration of 1-300 μM, and blood pre-incubated with ATP at 5% CO2 at 37 DC for 30 min. After stimulation with LPS en PHA (10 and 1 μg/ml final concentration, respectively), the plates were incubated in 5% CO2 at 37° C. for 24 h. Cell-free supernatant fluids were then collected by centrifugation (6000 rpm, 10 min at 4° C.) and stored at −20° C. until tested for presence of cytokines. All cytokines were quantified by means of PeliKine Compact human ELISA kits (CLB/Sanquin, The Netherlands), based on appropriate and validated sets of monoclonal antibodies.
# Whole blood was collected and stimulated with LPS+PHA as described for Experiment 2. […]
# IL-6 = test: LPS+PHA-induced IL-6 secretion in whole blood from healthy subjects (ELISA); assay type: cell-based, human; details: indicated ATP concentrations, 24 h
# Experimental: FIG. 9 Effect of ATP on LPS+PHA-induced IL-6 secretion in whole blood from healthy subjects. The whole blood was exposed to 10 μg/ml LPS and 1 μg/ml PHA with indicated concentrations of ATP for 24 h. The IL-6 released into the supernatants was analyzed using the ELISA method. Results are expressed in percentage, 100% being the IL-6 release under stimulation by LPS+PHA without ATP. […] Data are expressed at the mean values; error bars represent SEM.
# as §1
# TNF-α/IL-10 ratio [2] = test: TNF-α/IL-10 ratio in whole blood incubated with H2O2 without LPS+PHA; assay type: cell-based, human; details: 300 μM ATP, 5 mM H2O2, no LPS+PHA
# Experimental: FIG. 14 Effect of ATP on cytokine secretion in whole blood under conditions of oxidative stress. Blood was pre-incubated with ATP or no ATP (control) for 30 min, followed by incubation with H2O2 (5 mM) or 24 h, without addition of LPS+PHA. The TNF-α and IL-10 released into the supernatant was analyzed using the ELISA method. Results are expressed in percentage, 100% being the TNF-α/IL-10 ratio when blood was incubated with H2O2 only, but no ATP (control). The TNF-alpha/IL-10 ratio was reduced by ATP in a concentration-dependent manner, with a 90% reduction at 300 μM ATP, indicating inhibition of inflammatory response.
# This experiment was performed to test the effects of ATP under circumstances of oxidative stress in healthy subjects, but without LPS-PHA induced stimulation of cytokine production. Whole blood was collected as described for experiment 2, and was pre-incubated with ATP at final concentrations of 100-300 μM, or no ATP (control), for 30 min. Then, blood was incubated with H2O2 (5 mM) or 24 h, without addition of LPS+PHA. and incubated for 24 hours with 5 mM H2O2 at 5% CO2 and 37° C. Cytokine production was measured as in Experiment 2. Results were expressed as the TNF-α/IL-10 ratio relative to the control condition (H2O2 without ATP).
# TNF-α/IL-10 ratio [3] = test: TNF-α/IL-10 ratio in whole blood from patients with oxidative stress-related diseases; assay type: cell-based, human; details: for reduction in the TNF-α/IL-10 ratio: 300 μM ATP
# Experimental: (§2) FIG. 15 Effect of ATP on the ratio of TNF-α/IL-10 secretion in whole blood from a patient with oxidative stress-related disease. […] In both experiments, TNF-α and IL-10 released into the supernatants was analyzed using the ELISA method. Results are expressed in percentage, 100% being the TNF-α/IL-10 ratio without ATP (control).
# as §2, with “16” for “15”, “(control). Both in untreated and in LPS-PHA stimulated blood, the ratio of TNF-α/IL-10 release from whole blood was reduced by the addition of ATP.” for “(control).”
# FIG. 17 Effect of ATP on the ratio of TNF-α/IL-10 secretion in whole blood from a patient with oxidative stress-related disease. […] TNF-α and IL-10 released into the supernatants was analyzed using the ELISA method. Results are expressed in percentage, 100% being the TNF-α/IL-10 ratio without ATP (control). The ratio of TNF-α/IL-10 release from whole blood was reduced by the addition of ATP.
# This experiment was performed to test the effects of ATP ex vivo in whole blood collected from patients with oxidative stress-related diseases, both without and with LPS+PHA stimulation of cytokine production. Whole blood from 3 patients with different oxidative stress-related diseases was collected as described for experiment 2, and incubated for 24 hours at 5% CO2 and 37° C., with ATP added at a final concentration 300 μM, or no ATP (control). Cytokine production was measured as in Experiment 2. Results were expressed as the TNF-α/IL-10 ratio relative to the control condition (no ATP).
# [4] = tested on: guinea pig alveolar macrophages; test: Guinea pig alveolar macrophages incubated with LPS and spin-trap DMPO; assay type: cell-based
# Text: As mentioned above, ATP is known to enhance the oxidative burst of neutrophils and other phagocytic cells. […] In a study using guinea pig alveolar macrophages (according to (35, 36)) we confirmed the ATP dependent increase in H2O2 formation. […] This finding underlines the importance and practical relevance of the present invention that ATP attenuates of hydroxyl radical DMPO adduct formation in a more chemically oriented set-up. Our finding that the formation of the DMPO—OH adducts is inhibited by the presence of ATP, also in incubations with alveolar macrophages, is of great promise for the protective effect of ATP in diseases and conditions in which oxidative stress plays a predominant role, as discussed on the previous pages.
# [5] = cited from earlier work
smiles,measurement,setting,value
"Nc1ncnc2c1ncn2[C@@H]1O[C@H](COP(=O)(O)OP(=O)(O)OP(=O)(O)O)[C@@H](O)[C@H]1O [ATP, Adenosine 5′-triphosphate]",effect on DMPO—OH spin adduct formation,[1]; 100 μM,significant inhibition
same,inhibition of the DMPO—OH spin adduct formation,[1]; highest concentration used (range 0.1 mM-10 mM),80% and ≈ 80%
same,effect on DMPO—OH spin adduct formation vs control (buffer),"[1]; representative ESR spectra, FIG. 1",strongly inhibited
same,effect on LPS+PHA-induced IL-10 release,IL-10,significantly increased
same,effect on LPS+PHA-induced IL-6 release,IL-6,No effect; also recorded: not influenced
same,reduction in the TNF-α/IL-10 ratio,TNF-α/IL-10 ratio [2],90%
same,reduction in the TNF-α/IL-10 ratio,"TNF-α/IL-10 ratio [3]; patient blood stimulated with LPS+PHA, depending on the patient",40-80%
same,reduction in the TNF-α/IL-10 ratio,TNF-α/IL-10 ratio [3]; patient blood without LPS+PHA,60-80%
same,effect on ratio of TNF-α/IL-10 release,"TNF-α/IL-10 ratio [3]; patient blood, untreated and/or LPS+PHA-stimulated",markedly reduced
same,effect on H2O2 formation,[4],increase
same,effect on DMPO—OH adduct formation,[4]; macrophages incubated with LPS,inhibited
same,effect on plasma levels of pro- or anti-inflammatory cytokines,[5]; Swennen et al. 2004,neither an effect
same,loss of weight and muscle mass compared to a control group,[5]; regular infusions,inhibited
